Holding throughout (assay): Kinase profiling screen (radioactive filter-binding assay)
Assay type in all cases: biochemical

The target of one test is T1, Aurora A (Homo sapiens, UniProt O14965).
T1 sequence (O14965 1-403): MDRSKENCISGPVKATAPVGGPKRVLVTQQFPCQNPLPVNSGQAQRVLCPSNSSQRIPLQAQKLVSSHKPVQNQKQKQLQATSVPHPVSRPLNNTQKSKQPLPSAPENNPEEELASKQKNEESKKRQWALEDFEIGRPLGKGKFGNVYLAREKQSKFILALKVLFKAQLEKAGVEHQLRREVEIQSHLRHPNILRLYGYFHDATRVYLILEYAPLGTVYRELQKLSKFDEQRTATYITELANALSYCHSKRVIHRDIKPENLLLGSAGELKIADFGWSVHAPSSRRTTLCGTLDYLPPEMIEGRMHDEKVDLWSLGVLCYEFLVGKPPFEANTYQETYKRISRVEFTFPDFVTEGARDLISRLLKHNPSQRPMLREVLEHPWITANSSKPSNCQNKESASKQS
Particulars: for activity at 100 µM: 100 μM compound, 5 μM ATP, read-out: Kinase activity, % of activity in the absence of inhibitor. The gist of the method:
(§1)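 Residual kinase activity is read in duplicate wells containing 100 μM final test compound (CoA, dpCoA or ADP). Recombinant kinases use model substrates at ATP levels optimal for each enzyme, across a 117-kinase screen.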

A further test concerns the target Aurora B (Homo sapiens, UniProt Q96GD4). The note with it: for activity at 100 µM: 100 μM compound, 20 μM ATP, read-out: Kinase activity, % of activity in the absence of inhibitor. The gist of the method:
as §1

Another test concerns the target BTK (Homo sapiens, UniProt Q06187). Particulars: for activity at 100 µM: 100 μM compound, 50 μM ATP, read-out: Kinase activity, % of activity in the absence of inhibitor. The gist of the method:
as §1

For a further test, the target named is DAPK1 (Homo sapiens, UniProt P53355). The note with it: 100 μM compound, 5 μM ATP; read-out: Kinase activity, % of activity in the absence of inhibitor. The method in brief: as §1
The next test addresses EPH-A2 (Homo sapiens, UniProt P29317). The note with it: 100 μM compound, 50 μM ATP; read-out: Kinase activity, % of activity in the absence of inhibitor. The method in brief:
as §1

The next test concerns the target HIPK2 (Homo sapiens, UniProt Q9H2X6). Particulars: 100 μM compound, 5 μM ATP; read-out: Kinase activity, % of activity in the absence of inhibitor. The method in brief: as §1
In the next test the target is MST4 (Homo sapiens, UniProt Q9P289). The note with it: 100 μM compound, 20 μM ATP; read-out: Kinase activity, % of activity in the absence of inhibitor. The method in brief:
as §1

The next test has as its target T2, PKD1 (Homo sapiens, UniProt Q15139).
T2 sequence (Q15139 1-912): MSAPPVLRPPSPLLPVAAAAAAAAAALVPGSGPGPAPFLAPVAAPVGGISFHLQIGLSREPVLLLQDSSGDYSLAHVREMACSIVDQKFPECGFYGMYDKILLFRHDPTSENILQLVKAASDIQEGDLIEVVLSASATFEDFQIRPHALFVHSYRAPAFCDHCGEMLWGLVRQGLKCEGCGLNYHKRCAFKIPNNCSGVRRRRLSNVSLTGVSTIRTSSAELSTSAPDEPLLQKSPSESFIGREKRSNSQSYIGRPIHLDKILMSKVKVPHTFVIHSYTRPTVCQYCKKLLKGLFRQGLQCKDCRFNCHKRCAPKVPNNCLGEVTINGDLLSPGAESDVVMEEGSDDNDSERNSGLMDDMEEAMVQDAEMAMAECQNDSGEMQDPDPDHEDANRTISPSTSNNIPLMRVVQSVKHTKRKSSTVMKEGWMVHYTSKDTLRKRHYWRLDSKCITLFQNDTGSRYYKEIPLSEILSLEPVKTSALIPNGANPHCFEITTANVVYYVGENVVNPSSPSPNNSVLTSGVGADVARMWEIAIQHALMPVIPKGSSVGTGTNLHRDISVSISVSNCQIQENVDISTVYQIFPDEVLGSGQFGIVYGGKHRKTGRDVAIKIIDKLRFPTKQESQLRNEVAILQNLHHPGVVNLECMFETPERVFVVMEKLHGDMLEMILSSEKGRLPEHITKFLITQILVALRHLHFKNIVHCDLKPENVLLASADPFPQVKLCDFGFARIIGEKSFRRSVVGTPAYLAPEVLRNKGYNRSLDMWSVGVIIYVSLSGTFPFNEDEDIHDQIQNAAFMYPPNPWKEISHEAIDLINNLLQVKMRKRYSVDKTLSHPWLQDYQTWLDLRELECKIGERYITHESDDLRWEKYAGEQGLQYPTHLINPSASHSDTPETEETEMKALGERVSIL
Particulars: 100 μM compound, 50 μM ATP; read-out: Kinase activity, % of activity in the absence of inhibitor. The gist of the method:
as §1

Another test addresses T3, SGK1 (Homo sapiens, UniProt O00141).
T3 sequence (O00141 1-431): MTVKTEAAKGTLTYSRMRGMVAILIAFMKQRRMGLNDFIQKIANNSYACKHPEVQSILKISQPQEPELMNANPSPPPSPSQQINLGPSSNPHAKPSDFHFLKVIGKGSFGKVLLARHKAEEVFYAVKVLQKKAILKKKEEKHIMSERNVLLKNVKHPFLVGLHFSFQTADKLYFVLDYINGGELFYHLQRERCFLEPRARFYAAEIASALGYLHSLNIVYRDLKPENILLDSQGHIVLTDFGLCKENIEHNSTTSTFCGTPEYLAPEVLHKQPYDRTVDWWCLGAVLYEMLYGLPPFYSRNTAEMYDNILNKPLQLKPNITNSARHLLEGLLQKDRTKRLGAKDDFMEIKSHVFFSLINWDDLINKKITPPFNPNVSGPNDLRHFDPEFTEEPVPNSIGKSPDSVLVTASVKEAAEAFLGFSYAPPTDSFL
The note with it: 100 μM compound, 20 μM ATP; read-out: Kinase activity, % of activity in the absence of inhibitor. The method in brief:
as §1

Another test deals with SYK (Homo sapiens, UniProt P43405). Particulars: 100 μM compound, 20 μM ATP; read-out: Kinase activity, % of activity in the absence of inhibitor. The method in brief: as §1
A further test addresses T4, TAK1 (Homo sapiens, UniProt O43318).
T4 sequence (O43318 1-303 limits assumed): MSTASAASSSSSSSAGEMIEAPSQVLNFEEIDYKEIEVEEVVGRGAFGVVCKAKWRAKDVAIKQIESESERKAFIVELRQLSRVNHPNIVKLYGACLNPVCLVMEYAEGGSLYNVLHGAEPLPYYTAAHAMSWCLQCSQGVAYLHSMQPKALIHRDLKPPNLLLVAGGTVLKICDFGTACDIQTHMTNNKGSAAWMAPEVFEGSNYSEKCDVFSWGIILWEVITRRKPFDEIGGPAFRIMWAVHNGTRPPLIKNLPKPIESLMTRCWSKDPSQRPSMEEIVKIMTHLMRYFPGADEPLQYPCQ
The note with it: 100 μM compound, 5 μM ATP; read-out: Kinase activity, % of activity in the absence of inhibitor. The method in brief:
as §1

From paper PMC6812009, “Covalent Aurora A regulation by the metabolic integrator coenzyme A” (Redox Biology, 2019) come the findings set out here.

Chain of Aurora B (Q96GD4 whole entry): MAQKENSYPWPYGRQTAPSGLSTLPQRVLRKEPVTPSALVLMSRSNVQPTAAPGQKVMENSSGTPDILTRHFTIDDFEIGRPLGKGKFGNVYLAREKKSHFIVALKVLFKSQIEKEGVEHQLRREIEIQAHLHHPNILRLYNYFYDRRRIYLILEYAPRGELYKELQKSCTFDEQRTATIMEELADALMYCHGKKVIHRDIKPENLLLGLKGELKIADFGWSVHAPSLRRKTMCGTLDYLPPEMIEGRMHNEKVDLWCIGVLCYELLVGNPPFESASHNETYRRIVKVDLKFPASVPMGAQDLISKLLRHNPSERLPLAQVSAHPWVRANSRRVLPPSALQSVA
Chain of HIPK2 (Q9H2X6 whole entry): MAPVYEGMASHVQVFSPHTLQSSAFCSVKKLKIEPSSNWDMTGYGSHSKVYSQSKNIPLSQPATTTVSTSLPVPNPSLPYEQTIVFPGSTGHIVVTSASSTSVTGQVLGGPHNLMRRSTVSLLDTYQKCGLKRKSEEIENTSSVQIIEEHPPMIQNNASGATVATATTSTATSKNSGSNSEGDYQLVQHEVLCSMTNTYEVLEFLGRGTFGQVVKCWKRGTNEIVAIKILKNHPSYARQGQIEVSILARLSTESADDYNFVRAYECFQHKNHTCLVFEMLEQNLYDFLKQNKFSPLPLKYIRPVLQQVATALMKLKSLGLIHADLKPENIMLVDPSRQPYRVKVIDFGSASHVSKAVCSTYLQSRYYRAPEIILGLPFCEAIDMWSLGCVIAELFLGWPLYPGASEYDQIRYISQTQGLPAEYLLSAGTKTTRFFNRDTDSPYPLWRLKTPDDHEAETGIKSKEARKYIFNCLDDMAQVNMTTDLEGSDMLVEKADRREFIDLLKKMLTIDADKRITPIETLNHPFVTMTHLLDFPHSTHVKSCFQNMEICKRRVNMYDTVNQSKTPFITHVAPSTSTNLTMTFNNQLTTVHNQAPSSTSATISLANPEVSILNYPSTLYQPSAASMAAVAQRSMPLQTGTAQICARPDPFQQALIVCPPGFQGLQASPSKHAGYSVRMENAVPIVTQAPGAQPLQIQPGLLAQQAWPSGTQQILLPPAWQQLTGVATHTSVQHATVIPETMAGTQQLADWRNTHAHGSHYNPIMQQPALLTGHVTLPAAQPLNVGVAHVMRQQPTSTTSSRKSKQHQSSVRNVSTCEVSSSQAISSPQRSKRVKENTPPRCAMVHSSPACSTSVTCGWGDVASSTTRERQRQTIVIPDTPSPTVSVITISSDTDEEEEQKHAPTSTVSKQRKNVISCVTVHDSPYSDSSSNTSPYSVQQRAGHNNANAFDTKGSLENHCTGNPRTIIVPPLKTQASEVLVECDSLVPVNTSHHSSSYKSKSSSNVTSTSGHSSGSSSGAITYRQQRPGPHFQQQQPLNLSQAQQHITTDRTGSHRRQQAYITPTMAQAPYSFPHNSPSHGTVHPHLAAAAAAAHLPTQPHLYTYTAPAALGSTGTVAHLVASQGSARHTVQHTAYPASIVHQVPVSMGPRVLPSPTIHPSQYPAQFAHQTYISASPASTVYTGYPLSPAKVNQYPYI
Chain of MST4 (Q9P289 whole entry): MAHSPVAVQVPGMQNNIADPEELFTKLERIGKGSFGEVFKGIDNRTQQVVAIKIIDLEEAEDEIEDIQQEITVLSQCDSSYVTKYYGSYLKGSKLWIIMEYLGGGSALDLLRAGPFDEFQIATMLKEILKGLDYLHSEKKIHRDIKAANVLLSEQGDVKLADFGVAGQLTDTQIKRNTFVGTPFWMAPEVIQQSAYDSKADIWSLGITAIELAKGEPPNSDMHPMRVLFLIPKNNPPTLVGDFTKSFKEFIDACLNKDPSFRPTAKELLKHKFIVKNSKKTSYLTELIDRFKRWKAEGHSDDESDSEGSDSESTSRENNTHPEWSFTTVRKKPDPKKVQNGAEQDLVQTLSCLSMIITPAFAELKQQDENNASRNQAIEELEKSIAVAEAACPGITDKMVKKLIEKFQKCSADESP
Chain of BTK (Q06187 whole entry): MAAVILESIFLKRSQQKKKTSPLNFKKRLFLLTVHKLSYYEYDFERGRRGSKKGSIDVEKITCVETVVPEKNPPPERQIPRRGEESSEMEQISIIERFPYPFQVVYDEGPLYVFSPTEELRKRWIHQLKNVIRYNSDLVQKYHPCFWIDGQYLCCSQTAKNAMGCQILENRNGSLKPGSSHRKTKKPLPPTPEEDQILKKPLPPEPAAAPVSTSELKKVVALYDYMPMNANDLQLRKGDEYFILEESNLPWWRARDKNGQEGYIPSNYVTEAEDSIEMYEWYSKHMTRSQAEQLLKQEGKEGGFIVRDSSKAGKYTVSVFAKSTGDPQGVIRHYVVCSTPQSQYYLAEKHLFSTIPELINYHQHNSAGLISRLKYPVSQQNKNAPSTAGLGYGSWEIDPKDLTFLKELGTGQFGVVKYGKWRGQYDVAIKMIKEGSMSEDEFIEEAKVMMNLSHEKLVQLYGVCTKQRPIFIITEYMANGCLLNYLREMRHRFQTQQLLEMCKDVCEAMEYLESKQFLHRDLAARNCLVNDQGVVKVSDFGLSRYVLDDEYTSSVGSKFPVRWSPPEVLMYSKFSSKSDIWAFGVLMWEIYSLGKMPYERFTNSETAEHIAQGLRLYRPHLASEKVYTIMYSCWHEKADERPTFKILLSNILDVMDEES
Chain of DAPK1 (P53355 whole entry): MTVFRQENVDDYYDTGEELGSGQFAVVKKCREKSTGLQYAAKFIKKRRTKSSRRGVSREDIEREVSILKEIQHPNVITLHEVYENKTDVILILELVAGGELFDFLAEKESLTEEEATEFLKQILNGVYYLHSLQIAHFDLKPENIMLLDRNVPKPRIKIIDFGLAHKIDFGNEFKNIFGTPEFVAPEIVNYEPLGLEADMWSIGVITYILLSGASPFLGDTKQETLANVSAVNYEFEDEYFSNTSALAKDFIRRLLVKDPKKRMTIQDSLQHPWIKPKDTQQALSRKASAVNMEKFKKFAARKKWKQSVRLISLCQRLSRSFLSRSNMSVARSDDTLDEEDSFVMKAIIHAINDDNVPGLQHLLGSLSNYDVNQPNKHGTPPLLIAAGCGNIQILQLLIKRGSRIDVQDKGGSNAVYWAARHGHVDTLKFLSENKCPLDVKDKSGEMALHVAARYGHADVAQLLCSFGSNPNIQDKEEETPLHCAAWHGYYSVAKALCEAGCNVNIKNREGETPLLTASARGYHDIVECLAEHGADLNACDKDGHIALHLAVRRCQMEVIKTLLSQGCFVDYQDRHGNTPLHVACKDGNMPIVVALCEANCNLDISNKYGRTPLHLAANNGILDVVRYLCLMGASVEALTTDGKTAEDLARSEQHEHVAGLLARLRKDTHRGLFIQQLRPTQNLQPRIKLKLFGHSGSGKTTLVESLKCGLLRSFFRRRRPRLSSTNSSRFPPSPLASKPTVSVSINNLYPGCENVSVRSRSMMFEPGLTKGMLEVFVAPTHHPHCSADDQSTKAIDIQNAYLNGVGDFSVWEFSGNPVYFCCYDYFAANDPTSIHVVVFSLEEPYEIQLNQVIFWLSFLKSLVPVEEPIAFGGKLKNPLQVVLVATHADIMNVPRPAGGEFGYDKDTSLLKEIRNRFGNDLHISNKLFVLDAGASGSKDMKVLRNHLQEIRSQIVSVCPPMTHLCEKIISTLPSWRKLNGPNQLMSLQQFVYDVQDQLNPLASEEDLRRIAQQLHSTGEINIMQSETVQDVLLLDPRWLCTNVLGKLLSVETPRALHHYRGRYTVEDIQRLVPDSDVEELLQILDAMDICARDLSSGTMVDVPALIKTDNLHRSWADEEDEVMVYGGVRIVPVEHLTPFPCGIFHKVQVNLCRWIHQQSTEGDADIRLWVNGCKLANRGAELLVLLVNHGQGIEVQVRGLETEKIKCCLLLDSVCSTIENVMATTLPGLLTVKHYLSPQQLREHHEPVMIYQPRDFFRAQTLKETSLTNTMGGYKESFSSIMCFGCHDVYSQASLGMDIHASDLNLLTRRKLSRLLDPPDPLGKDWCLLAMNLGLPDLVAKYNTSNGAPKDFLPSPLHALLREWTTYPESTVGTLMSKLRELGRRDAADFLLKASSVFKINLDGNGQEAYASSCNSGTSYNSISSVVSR
Chain of EPH-A2 (P29317 24-976): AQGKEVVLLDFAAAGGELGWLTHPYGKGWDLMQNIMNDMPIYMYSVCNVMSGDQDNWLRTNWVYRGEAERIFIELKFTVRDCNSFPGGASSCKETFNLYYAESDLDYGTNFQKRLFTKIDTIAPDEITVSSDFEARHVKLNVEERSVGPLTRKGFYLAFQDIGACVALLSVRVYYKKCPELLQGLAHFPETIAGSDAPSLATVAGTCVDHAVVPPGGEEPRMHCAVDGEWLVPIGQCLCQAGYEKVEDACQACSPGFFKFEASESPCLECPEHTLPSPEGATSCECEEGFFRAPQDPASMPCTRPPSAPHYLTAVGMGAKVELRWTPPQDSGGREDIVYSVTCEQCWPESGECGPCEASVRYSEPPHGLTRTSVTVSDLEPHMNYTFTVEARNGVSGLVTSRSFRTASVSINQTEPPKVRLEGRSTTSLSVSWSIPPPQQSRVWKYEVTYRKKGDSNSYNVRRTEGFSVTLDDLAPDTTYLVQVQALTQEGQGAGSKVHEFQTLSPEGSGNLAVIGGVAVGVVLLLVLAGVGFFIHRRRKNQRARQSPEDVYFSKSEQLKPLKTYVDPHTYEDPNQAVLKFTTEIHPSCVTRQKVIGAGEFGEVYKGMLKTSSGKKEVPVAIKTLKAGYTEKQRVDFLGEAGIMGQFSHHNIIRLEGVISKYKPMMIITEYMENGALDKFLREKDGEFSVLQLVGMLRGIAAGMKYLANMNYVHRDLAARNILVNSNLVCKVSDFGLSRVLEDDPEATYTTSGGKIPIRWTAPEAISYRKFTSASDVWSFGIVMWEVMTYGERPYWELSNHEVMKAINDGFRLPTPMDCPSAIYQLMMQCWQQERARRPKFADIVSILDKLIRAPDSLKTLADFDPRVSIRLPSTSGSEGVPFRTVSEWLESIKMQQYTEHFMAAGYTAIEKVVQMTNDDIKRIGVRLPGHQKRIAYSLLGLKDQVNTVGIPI

With `Nc1ncnc2c1ncn2C1OC(COP(=O)(O)OP(=O)(O)O)C(O)C1O` (stereo not drawn) [ADP], the activity at 100 µM at Aurora A amounted to 38%; on Aurora B, 47.8%; at BTK, 18.2%; at DAPK1, 10.3%; at EPH-A2, 45%; on HIPK2, 16.5%. In addition, the activity at 100 µM was determined as 56.9% at MST4; 56.2% at PKD1; 38.7% at SGK1; 70.9% on SYK; 15.8% on TAK1.

By inhibition is commonly meant the percentage by which the read-out fell short of the control. Regarding `CC(C)(COP(=O)(O)OP(=O)(O)OC[C@H]1O[C@@H](n2cnc3c(N)ncnc32)[C@H](O)[C@@H]1OP(=O)(O)O)[C@@H](O)C(=O)NCCC(=O)NCCS` [CoA, Coenzyme A], the activity at 100 µM on Aurora A turned out to be 13.4%; on Aurora B, 54.3%; at BTK it was 67.9%; on DAPK1, 106%; at EPH-A2, 102%; at HIPK2, 153%. The activity at 100 µM was 107% at MST4; 112% at PKD1; 103% at SGK1; 98.3% on SYK; 115% on TAK1. Also, the inhibition at 100 µM at Aurora A (at 100 μM, n = 3) worked out at 87%; on Aurora B (at 100 μM compound), 46%. Besides, the “BTK inhibition (in words)” value at BTK (kinase profiling, 100 μM) was “modestly inhibited”.

With `CC(C)(COP(=O)(O)OP(=O)(O)OCC1OC(n2cnc3c(N)ncnc32)C(O)C1O)C(O)C(=O)NCCC(=O)NCCS` (stereo not drawn) [dpCoA, dephospho-CoA], the activity at 100 µM at Aurora A came out at 29.9%; at Aurora B it was 55.1%; on BTK it was 30.6%; at DAPK1, 64.4%; at EPH-A2, 99.2%; on HIPK2, 73.4%. In addition, the activity at 100 µM worked out at 89.7% at MST4; 104% at PKD1; 74.3% at SGK1; 106% on SYK; 79.6% at TAK1.
